Measured values taken from ChEMBL document CHEMBL3593161, “Discovery of potent and selective nonplanar tankyrase inhibiting nicotinamide mimics” (Bioorg Med Chem, 2015).
Values joined by “and” are separate entries in the source; they are usually repeats but may differ in a detail not shown here. Identical values can stand only once.

Key:
[1] = molecular target: T1, Poly [ADP-ribose] polymerase tankyrase-2 (Homo sapiens, UniProt Q9H2K2)
T1 sequence (Q9H2K2 whole entry): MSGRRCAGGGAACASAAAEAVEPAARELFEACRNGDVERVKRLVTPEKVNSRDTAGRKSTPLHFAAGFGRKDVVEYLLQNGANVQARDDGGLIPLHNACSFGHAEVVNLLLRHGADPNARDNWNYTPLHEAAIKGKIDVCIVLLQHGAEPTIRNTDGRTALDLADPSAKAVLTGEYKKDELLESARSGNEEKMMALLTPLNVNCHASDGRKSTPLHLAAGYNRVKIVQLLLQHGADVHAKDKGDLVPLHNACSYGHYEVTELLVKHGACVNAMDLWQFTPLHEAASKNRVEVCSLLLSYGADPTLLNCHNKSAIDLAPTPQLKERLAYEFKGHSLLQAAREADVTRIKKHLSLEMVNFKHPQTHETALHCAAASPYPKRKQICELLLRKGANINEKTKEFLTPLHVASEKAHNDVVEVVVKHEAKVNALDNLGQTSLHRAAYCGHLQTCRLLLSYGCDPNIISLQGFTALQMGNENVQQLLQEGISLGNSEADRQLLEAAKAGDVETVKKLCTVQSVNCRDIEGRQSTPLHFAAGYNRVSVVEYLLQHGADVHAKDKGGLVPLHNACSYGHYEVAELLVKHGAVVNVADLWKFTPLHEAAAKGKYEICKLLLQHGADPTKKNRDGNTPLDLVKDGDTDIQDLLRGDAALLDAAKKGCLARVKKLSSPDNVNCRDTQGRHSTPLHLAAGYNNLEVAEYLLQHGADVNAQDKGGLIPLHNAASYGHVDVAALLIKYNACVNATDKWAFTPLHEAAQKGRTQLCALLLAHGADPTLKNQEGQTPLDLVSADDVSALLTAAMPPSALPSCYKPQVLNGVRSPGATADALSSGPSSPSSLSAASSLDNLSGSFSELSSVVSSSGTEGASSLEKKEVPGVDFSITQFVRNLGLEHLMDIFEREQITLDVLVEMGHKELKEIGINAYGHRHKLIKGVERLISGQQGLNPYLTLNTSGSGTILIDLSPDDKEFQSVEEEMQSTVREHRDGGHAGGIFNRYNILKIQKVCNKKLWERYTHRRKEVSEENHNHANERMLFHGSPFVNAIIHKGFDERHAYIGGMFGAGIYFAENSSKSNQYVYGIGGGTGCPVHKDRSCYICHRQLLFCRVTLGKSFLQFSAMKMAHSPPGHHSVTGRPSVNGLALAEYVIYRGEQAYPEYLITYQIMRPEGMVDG
Description: Inhibition of human TNKS2 (956 to 1161 and 873 to 1161) using 500 nM NAD substrate after 20 mins incubation by fluorescence assay

HEK293 = assay: Cytotoxicity against HEK293 cells assessed as cell viability at 2.5 to 10 uM; format: cell-based; conditions: human, hek293, 10 µM
[2] = molecular target: T2, Poly [ADP-ribose] polymerase tankyrase-1 (Homo sapiens, UniProt O95271); assay: Inhibition of human TNKS1 (1030 to 1317) using NAD substrate after 20 mins incubation by fluorescence assay
T2 sequence (O95271 whole entry): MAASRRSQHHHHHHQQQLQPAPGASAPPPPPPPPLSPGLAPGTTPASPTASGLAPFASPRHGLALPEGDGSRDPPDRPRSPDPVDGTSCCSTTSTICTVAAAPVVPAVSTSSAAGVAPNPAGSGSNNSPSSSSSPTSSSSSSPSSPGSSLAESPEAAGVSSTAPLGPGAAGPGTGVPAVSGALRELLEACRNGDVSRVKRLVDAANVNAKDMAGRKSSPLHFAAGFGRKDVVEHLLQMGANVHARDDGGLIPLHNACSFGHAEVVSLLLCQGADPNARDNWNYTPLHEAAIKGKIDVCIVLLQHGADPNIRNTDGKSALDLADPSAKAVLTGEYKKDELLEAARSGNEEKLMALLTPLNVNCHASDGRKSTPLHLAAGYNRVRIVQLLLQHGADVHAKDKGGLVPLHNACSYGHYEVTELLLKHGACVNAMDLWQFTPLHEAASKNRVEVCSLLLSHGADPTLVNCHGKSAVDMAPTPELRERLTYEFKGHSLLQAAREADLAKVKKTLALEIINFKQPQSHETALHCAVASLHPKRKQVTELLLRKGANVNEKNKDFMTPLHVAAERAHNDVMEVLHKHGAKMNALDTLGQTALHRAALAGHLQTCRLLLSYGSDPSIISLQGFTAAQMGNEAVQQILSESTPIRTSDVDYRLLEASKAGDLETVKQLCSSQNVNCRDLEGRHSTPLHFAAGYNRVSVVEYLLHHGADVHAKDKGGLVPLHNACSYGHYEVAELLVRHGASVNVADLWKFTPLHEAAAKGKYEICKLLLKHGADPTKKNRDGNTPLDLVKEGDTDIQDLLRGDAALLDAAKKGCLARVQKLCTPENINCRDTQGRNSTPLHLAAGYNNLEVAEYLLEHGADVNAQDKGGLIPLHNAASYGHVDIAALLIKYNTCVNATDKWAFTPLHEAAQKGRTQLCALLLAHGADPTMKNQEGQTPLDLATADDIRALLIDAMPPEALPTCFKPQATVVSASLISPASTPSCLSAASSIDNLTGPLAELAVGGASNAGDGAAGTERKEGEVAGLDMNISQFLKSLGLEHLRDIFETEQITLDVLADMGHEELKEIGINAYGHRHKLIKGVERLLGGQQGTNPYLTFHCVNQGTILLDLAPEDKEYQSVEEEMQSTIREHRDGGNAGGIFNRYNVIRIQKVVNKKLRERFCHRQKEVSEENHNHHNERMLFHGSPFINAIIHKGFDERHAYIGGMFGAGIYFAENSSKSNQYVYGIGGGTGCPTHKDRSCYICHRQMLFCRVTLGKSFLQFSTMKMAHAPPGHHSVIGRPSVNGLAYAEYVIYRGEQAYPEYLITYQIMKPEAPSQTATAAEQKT

[3] = molecular target: Poly [ADP-ribose] polymerase 2 (Homo sapiens, UniProt Q9UGN5); assay: Inhibition of full-length human ARTD2 using 500 nM NAD substrate after 3 hrs incubation
Poly [ADP-ribose] polymerase 2, sequence (Q9UGN5 whole entry): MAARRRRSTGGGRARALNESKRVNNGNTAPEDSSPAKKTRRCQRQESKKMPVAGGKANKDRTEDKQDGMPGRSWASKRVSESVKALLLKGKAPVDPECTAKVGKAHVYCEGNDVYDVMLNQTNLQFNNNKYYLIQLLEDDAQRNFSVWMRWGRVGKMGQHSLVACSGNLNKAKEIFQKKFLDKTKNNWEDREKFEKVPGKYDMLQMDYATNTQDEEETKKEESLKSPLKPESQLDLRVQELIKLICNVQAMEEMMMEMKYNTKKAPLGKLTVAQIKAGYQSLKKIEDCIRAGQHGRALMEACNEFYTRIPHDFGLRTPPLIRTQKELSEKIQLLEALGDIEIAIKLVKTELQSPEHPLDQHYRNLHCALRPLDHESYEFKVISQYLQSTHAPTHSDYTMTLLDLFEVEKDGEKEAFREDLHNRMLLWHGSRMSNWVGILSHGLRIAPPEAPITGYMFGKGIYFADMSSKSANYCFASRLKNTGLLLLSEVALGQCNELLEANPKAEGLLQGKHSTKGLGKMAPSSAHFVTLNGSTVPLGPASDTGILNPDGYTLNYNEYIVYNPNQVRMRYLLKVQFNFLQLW

[4] = molecular target: Protein mono-ADP-ribosyltransferase PARP4 (Homo sapiens, UniProt Q9UKK3); assay: Inhibition of human ARTD4 (250 to 565) using 500 nM NAD substrate after 2.5 hrs incubation
Protein mono-ADP-ribosyltransferase PARP4, sequence (Q9UKK3 whole entry): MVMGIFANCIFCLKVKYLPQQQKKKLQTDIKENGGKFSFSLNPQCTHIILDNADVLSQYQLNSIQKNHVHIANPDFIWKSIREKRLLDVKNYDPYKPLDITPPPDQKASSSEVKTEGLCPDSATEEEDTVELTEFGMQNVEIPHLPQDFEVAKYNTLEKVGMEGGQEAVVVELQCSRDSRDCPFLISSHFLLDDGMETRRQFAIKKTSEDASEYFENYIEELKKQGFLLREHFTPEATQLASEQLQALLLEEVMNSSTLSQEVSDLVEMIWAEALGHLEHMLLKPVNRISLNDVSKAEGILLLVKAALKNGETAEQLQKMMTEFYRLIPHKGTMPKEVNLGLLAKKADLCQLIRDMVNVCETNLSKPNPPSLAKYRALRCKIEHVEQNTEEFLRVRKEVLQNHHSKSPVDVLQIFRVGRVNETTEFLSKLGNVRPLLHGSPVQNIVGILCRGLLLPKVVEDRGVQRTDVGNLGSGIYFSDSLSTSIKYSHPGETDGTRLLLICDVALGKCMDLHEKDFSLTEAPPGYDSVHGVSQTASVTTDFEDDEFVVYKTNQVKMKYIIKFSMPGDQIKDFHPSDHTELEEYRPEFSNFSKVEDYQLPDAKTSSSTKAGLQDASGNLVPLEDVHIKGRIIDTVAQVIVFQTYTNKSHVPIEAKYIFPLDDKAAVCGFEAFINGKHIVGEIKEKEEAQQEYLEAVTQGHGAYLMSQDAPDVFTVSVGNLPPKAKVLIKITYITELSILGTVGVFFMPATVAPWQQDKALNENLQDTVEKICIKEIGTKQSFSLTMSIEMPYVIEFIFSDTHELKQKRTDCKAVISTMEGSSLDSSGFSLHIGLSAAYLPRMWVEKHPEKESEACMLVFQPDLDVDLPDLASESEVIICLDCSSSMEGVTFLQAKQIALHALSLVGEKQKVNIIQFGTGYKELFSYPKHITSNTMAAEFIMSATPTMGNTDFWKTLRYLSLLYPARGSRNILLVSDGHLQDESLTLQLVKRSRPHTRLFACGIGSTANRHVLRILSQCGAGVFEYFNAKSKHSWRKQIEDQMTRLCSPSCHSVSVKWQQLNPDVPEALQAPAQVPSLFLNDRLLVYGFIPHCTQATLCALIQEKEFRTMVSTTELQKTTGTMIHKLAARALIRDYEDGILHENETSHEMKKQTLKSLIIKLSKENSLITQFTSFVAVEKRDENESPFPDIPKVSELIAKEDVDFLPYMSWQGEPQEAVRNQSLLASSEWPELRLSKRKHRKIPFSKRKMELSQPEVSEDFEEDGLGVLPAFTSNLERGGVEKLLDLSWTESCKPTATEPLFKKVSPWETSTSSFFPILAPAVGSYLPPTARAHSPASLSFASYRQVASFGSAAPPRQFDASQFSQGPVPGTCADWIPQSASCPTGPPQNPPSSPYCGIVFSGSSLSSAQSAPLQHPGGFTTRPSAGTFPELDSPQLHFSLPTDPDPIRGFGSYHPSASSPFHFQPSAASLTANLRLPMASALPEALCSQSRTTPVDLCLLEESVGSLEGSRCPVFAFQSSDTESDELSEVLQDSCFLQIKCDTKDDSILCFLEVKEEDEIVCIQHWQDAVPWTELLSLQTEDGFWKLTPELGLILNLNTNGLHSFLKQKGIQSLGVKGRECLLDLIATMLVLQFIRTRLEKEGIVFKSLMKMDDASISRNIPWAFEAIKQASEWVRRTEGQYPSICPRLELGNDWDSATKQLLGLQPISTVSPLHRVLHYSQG

[5] = molecular target: T3, Protein mono-ADP-ribosyltransferase PARP15 (Homo sapiens, UniProt Q460N3); assay: Inhibition of human ARTD7 (460 to 656) using 250 nM NAD substrate after 2 hrs incubation
T3 sequence (Q460N3 whole entry): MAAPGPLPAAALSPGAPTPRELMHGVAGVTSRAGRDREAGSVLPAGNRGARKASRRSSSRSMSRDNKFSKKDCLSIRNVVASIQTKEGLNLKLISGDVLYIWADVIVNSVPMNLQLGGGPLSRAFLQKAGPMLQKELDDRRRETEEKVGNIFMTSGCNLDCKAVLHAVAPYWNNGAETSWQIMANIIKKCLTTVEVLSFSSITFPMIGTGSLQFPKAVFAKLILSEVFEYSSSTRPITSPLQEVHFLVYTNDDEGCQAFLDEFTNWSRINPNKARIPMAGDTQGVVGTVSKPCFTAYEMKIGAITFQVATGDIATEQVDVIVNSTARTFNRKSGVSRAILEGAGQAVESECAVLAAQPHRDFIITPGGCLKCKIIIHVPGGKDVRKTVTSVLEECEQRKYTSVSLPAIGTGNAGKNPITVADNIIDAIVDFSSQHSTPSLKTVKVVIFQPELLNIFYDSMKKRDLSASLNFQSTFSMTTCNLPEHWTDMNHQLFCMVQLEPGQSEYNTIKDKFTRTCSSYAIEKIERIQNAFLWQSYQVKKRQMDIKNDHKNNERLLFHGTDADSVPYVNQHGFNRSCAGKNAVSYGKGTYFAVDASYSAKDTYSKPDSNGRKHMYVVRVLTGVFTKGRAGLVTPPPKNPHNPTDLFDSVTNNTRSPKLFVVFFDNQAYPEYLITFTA

[6] = molecular target: T4, Protein mono-ADP-ribosyltransferase PARP10 (Homo sapiens, UniProt Q53GL7); assay: Inhibition of human ARTD10 (809 to 1017) using 500 nM NAD substrate after 2.5 hrs incubation
T4 sequence (Q53GL7 whole entry): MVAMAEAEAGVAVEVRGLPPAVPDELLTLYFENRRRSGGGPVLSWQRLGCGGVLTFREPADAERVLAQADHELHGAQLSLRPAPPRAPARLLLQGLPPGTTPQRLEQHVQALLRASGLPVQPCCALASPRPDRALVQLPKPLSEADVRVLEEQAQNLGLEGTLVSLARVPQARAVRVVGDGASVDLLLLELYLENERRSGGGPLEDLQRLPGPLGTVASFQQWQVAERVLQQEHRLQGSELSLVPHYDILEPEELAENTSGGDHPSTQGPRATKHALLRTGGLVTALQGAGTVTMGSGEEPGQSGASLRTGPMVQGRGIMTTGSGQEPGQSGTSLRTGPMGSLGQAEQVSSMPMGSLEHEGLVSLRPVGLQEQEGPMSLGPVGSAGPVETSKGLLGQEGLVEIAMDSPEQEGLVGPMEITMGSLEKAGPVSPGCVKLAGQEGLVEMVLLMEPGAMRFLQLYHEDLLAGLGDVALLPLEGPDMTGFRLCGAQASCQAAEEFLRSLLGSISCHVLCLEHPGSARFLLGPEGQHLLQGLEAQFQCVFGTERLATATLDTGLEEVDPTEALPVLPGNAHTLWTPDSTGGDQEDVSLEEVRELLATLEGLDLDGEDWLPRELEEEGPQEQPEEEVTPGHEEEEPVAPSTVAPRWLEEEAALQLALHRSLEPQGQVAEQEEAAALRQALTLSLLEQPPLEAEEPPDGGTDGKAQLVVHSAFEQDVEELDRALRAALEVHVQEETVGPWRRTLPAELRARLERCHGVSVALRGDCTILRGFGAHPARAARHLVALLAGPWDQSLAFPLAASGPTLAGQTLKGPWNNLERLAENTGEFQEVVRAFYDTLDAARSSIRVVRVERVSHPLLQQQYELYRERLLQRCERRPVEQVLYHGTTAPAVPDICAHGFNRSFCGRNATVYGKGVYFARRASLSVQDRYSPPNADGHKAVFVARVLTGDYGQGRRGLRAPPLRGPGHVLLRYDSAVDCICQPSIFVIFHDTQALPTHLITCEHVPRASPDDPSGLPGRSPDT

[7] = molecular target: Poly [ADP-ribose] polymerase 1 (Homo sapiens, UniProt P09874); assay: Inhibition of full-length human ARTD1 using 500 nM NAD substrate after 1 hr incubation
Poly [ADP-ribose] polymerase 1, sequence (P09874 whole entry): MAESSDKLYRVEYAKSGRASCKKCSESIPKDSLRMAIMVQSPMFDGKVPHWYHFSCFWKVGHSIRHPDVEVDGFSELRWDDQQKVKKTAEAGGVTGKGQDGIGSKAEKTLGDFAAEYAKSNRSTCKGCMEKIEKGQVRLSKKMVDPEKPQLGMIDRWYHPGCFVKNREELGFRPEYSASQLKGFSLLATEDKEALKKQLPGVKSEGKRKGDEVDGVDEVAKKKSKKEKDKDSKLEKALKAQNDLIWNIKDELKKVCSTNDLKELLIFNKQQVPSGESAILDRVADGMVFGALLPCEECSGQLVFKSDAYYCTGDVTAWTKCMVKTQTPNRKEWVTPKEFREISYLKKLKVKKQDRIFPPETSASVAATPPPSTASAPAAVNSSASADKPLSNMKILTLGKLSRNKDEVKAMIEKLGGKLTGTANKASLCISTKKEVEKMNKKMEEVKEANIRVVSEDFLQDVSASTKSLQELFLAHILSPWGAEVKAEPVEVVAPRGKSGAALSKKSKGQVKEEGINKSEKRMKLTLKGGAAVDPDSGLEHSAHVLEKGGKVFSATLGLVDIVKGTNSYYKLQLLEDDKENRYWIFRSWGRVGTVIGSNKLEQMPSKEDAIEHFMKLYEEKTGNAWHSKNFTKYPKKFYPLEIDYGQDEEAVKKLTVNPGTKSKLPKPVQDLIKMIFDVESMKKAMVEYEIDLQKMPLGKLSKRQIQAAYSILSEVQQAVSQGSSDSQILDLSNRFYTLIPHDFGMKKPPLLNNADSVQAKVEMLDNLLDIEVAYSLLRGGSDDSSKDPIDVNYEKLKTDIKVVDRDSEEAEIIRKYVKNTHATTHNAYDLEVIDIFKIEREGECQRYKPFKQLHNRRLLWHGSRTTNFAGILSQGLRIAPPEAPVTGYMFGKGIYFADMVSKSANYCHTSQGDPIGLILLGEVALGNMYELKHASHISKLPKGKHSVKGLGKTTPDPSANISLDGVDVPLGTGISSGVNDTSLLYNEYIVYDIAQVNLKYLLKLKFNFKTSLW

[8] = molecular target: T5, Protein mono-ADP-ribosyltransferase PARP3 (Homo sapiens, UniProt Q9Y6F1); assay: Inhibition of full-length human ARTD3 using 500 nM NAD substrate after 1 hrs incubation
T5 sequence (Q9Y6F1 whole entry): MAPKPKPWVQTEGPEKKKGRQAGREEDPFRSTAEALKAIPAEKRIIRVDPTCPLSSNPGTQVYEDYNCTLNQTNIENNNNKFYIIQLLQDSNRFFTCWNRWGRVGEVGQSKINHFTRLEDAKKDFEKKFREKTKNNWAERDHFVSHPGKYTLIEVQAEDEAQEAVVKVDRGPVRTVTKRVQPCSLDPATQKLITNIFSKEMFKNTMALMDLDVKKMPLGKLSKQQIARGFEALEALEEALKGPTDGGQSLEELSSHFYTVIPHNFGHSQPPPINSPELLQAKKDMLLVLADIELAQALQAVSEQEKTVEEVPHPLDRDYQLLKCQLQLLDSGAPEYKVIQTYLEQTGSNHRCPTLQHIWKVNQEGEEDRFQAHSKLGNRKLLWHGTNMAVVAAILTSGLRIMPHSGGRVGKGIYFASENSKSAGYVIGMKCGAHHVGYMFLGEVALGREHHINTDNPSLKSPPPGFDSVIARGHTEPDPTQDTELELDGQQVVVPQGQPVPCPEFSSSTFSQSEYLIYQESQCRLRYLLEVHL

[9] = molecular target: T3, Protein mono-ADP-ribosyltransferase PARP15; assay: Inhibition of human ARTD7 (460 to 656) using 250 nM NAD substrate at 10 uM after 2 hrs incubation
[10] = molecular target: T4, Protein mono-ADP-ribosyltransferase PARP10; assay: Inhibition of human ARTD10 (809 to 1017) using 500 nM NAD substrate at 10 uM after 2.5 hrs incubation

Structure (SMILES) | IC50 [1] | Activity (HEK293) | IC50 [2] [µM] | IC50 [3] [µM] | IC50 [4] [µM] | further results
O=C1NC(c2cccc(OCc3ccccc3)c2)Nc2ncccc21 (centres undefined) | 230 µM |  |  |  |  | 
O=c1[nH]c(N2CCNCC2)nc2c1CCO2 | > 100 µM |  |  |  |  | 
O=C1NC(c2cccc(OCc3ccccc3)c2)Nc2ccccc21 (centres undefined) | 7.3 µM and 7.24 µM |  |  |  |  | 
CCc1c(C)nc(N2CCN(c3ccccc3F)CC2)nc1O | 0.72 µM and 0.724 µM |  |  |  |  | 
CN1CCN(c2nc3c(c(=O)[nH]2)CCCC3)CC1 |  | Non-toxic | 6.3 | 3.6 | 17 | IC50 [5]: > 10 µM; IC50 [6]: > 10 µM
CN1c2ncccc2C(=O)NC1c1ccc(NC(=O)C2CCOCC2)cc1 (centres undefined) | 6.6 µM |  |  |  |  | 
O=C1NC(c2ccc(Cl)cc2)Nc2ccccc21 (centres undefined) | 0.41 µM and 0.417 µM |  |  |  |  | 
CC(C)c1ccc(C2NC(=O)c3ccccc3N2)cc1 (centres undefined) | 0.23 µM and 0.234 µM | Non-toxic | 1.1 | > 100 | > 100 | IC50 [7]: > 100 µM; IC50 [8]: 50 µM; IC50 [9]: > 10 µM; IC50 [10]: > 10 µM
O=C1NC(c2ccccc2Cl)Nc2ccccc21 (centres undefined) | 31.2 µM |  |  |  |  | 
O=c1[nH]c(N2CCN(Cc3ccncc3)CC2)nc2c1CCCC2 |  | Non-toxic | 0.37 | 4.2 | 33 | IC50 [5]: > 10 µM; IC50 [6]: 5.4 µM
COc1ccc(C2NC(=O)c3ccccc3N2)cc1 (centres undefined) | 0.99 µM and 1 µM |  |  |  |  | 
O=C1NC(c2ccccc2Cl)Nc2ncccc21 (centres undefined) | 140 µM |  |  |  |  | 
CC(C)(C)c1ccc(C2NC(=O)c3ccccc3N2)cc1 (centres undefined) | 0.15 µM and 0.155 µM | Non-toxic | 0.62 | > 100 | > 100 | IC50 [7]: > 100 µM; IC50 [8]: 34 µM; IC50 [9]: > 10 µM; IC50 [10]: > 10 µM
